# Laboratory results published in patent US20240391862A1, “(1,4,5-TRISUBSTITUTED-1H-PYRAZOL-3-YL)OXY-2-ALKOXY ALKYL ACIDS AND THEIR DERIVATIVES, THEIR SALTS AND THEIR USE AS HERBICIDAL AGENTS” (Bayer AKtiengesellschaft, priority 2021, published 2024).
# Assays:
# VERPE = experiment: Post-emergence herbicidal effect, greenhouse pot test; type: in vivo, Veronica persica
# Procedure, shortened: (§1)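 Sandy loam pots, greenhouse. One-leaf stage (2–3 wk after sowing) foliar spray; WP/EC in water + 0.5% additive, 600 l/ha; 20–320 g/ha. Visual score ~3 wk, 0–100% vs untreated.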
# ECHCG = experiment: as above; type: in vivo, Echinochloa crus-galli
# Procedure, shortened: as §1
# MATIN = experiment: as above; type: in vivo, Tripleurospermum inodorum
# Procedure, shortened: as §1
# POLCO = experiment: as above; type: in vivo, Fallopia convolvulus; conditions: 320 g/ha
# Procedure, shortened: as §1
# PHBPU = experiment: as above; type: in vivo, Ipomoea purpurea
# Procedure, shortened: as §1
# AVEFA = experiment: as above; type: in vivo, Avena fatua; conditions: visual rating about 3 weeks after treatment
# Procedure, shortened: as §1
# SETVI = experiment: as above; type: in vivo, Setaria viridis
# Procedure, shortened: as §1
# LOLRI = experiment: as above; type: in vivo, Lolium rigidum
# Procedure, shortened: as §1
# VIOTR = experiment: as above; type: in vivo, Viola tricolor
# Procedure, shortened: as §1
# ALOMY = experiment: as above; type: in vivo, Alopecurus myosuroides; conditions: 320 g/ha, visual rating about 3 weeks after treatment
# Procedure, shortened: as §1
# DIGSA = experiment: as above; type: in vivo, Digitaria sanguinalis; conditions: visual rating about 3 weeks after treatment
# Procedure, shortened: as §1
# AMARE = experiment: as above; type: in vivo, Amaranthus retroflexus; conditions: visual rating about 3 weeks after treatment
# Procedure, shortened: as §1
# KCHSC = experiment: as above; type: in vivo; conditions: 320 g/ha
# Procedure, shortened: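 Visual rating of activity against untreated plants (100% = plants died, 0% = no effect), done about 3 weeks after treatment. Compounds applied at 20–320 g/ha as aqueous spray (600 l/ha, 0.5% additive) from WP or EC formulations onto one-leaf-stage plants grown in sandy loam under greenhouse conditions.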
# ABUTH = experiment: as above; type: in vivo, Abutilon theophrasti; conditions: visual rating about 3 weeks after treatment
# Procedure, shortened: as §1
# ZEAMX = experiment: Post-emergence herbicidal effect and crop plant compatibility, greenhouse pot test; type: in vivo, Zea mays; conditions: one-leaf stage, rated visually after about 3 weeks vs untreated controls
# Procedure, shortened: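 Visual % activity scored roughly 3 weeks post-spray against untreated plants, where 100% means death and 0% equals control. Plants were treated at the one-leaf stage, 2 to 3 weeks after sowing in sandy loam, at 20 to 320 g/ha.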
Compound,Post-emergence effect against VERPE in % (VERPE; 80 g/ha),Post-emergence effect against VERPE in % (VERPE; 320 g/ha),Post-emergence effect against ECHCG in % (ECHCG; 80 g/ha),Post-emergence effect against ECHCG in % (ECHCG; 320 g/ha),Post-emergence effect against MATIN in % (MATIN; 80 g/ha),Post-emergence effect against MATIN in % (MATIN; 320 g/ha),Post-emergence effect against POLCO in % (POLCO),Post-emergence effect against PHBPU in % (PHBPU; 80 g/ha),Post-emergence effect against PHBPU in % (PHBPU; 320 g/ha),Post-emergence effect against AVEFA (AVEFA; 320 g/ha),Post-emergence effect against SETVI in % (SETVI; 80 g/ha),Post-emergence effect against SETVI in % (SETVI; 320 g/ha),Post-emergence effect against LOLRI in % (LOLRI; 320 g/ha),Post-emergence effect against VIOTR in % (VIOTR; 80 g/ha),Post-emergence effect against VIOTR in % (VIOTR; 320 g/ha),Post-emergence effect against ALOMY (ALOMY),Post-emergence effect against DIGSA (DIGSA; 80 g/ha),Post-emergence effect against DIGSA (DIGSA; 320 g/ha),Post-emergence effect against AMARE (AMARE; 320 g/ha),Post-emergence effect against KCHSC in % (KCHSC),further results
"COC(=O)CCOC(=O)C(OC)Oc1nn(-c2ccccc2F)c(-c2ccc(F)nc2)c1C1CC1 (single isomer, unassigned) [Example I-74]",90%,90%,90%,90%,80%,80%,90%,90%,90%,90%,90%,90%,90%,90%,90%,90%,80%,90%,80%,90%,"Post-emergence effect against ECHCG (ECHCG; 20 g/ha, visual rating about 3 weeks after treatment): 90%; Post-emergence effect against PHBPU in % (PHBPU; 20 g/ha): 80%; Post-emergence effect against AVEFA (AVEFA; 80 g/ha): 90%; Post-emergence effect against VIOTR in % (VIOTR; 20 g/ha): 80%; Post-emergence effect against AMARE (AMARE; 20 g/ha): 80%; Post-emergence effect against AMARE (AMARE; 80 g/ha): 80%; Post-emergence effect against ABUTH (ABUTH; 20 g/ha): 80%; Post-emergence effect against ABUTH (ABUTH; 80 g/ha): 80%; Post-emergence effect against ABUTH (ABUTH; 320 g/ha): 90%; Post-emergence effect at 20 g/ha against ZEAMX in % (ZEAMX): 0%"
"COC(=O)CCOC(=O)C(OC)Oc1nn(-c2ccccc2F)c(-c2ccc(F)nc2)c1C1CC1 (single isomer, unassigned) [Example I-75]",80%,90%,90%,90%,80%,80%,80%,80%,90%,90%,80%,90%,90%,80%,90%,80%,80%,80%,90%,90%,Post-emergence effect against LOLRI in % (LOLRI; 80 g/ha): 80%; Post-emergence effect against ABUTH (ABUTH; 20 g/ha): 80%; Post-emergence effect against ABUTH (ABUTH; 80 g/ha): 80%; Post-emergence effect against ABUTH (ABUTH; 320 g/ha): 90%; Post-emergence effect at 20 g/ha against ZEAMX in % (ZEAMX): 0%; Post-emergence effect at 80 g/ha against ZEAMX in % (ZEAMX; 80 g/ha): 0%
